Structures can show the parent of a compound that is named as a salt.
Tests used:
Type in all cases: in vivo
[1] = test system: Rice plants (indica cultivar); assay: Test M: vigor of direct seeded rice crop outdoors, An Giang, Vietnam; settings: all application rates (6.25, 12.5, 25 or 50 g a.i./ha) with 30 g a.i./ha indoxacarb and 20 g a.i./ha chlorantraniliprole; 18 days after application; Nilaparvata lugens level very low
Method: (§1) To evaluate the effect of application of a compound of the invention on the vigor of rice crops grown under outdoor conditions, Tests 1 through 0 were conducted. “a.i.” refers to the amount of active ingredient applied.
Rice plants (indica cultivar) were direct seeded into flooded 6 m×5 m test plots of clay loam soil in An Giang Province of Vietnam shortly before the monsoon, and grown using local agronomic practices. After 42 days, at the beginning of the wet season, aqueous mixtures containing 30 g a.i./ha of indoxacarb in form of STEWARD® Insecticide, 20 g a.i./ha of chlorantraniliprole, and 6.25, 12.5, 25 or 50 g a.i./ha of Compound 3 were applied to the foliage of the rice plants at in a spray volume of 400 L/ha using a motorized sprayer. Plots of control rice plants were sprayed with an aqueous mixture containing 30 g a.i./ha of indoxacarb in form of STEWARD® Insecticide and 20 g a.i./ha of chlorantraniliprole (i.e. no Compound 3). Each treatment and control was replicated three times, and the plots were arranged in a randomized complete block design. At the time of application of Compound 3, the pest level of rice brown planthopper (Nilaparvata lugens) was very low.

[2] = test system: maize plants (Prairie Hybrid 2431 organic field corn); assay: Test P: vigor (height) of maize plants in greenhouse in absence of pest pressure, surface drench
Method: In this test, the effect of a compound of the invention on the vigor of maize plants grown in a greenhouse in absence of pest pressure was measured.
Single maize seeds (Prairie Hybrid 2431 organic field corn) were planted 2.0 to 2.5 cm deep in 10 cm×10 cm×8 cm plastic pots containing either Redi-Earth sphagnum peat moss-based potting media (Sun Gro Horticulture Canada Ltd., Vancouver, British Columbia) or a 50/50 mixture of Matapeake soil and sand. Seeded pots were initially watered to a 5 cm depth and placed in a growth chamber maintained at 25° C. within a 16 h light/8 h dark photoperiod. The pots were watered whenever the soil surface dried.
After 8 days from initial watering, the potted plants were treated by applying as a surface drench 40 mL of an aqueous treatment mixture containing either 0.2 or 2.5 mg of Compound 3. To the pots of untreated control plants, 40 mL of tap water was similarly applied. Treatments and untreated controls were replicated 10 times.
Treated and untreated plants were then arranged in a complete randomized block design in a greenhouse maintained at 25.6-27.8° C. during the day and 23.0-25.0° C. at night. Supplemental lighting was added when outside light levels dropped below 200 watts m^−2 during a 16-h growing period, except that no supplemental lighting was activated when outside light energy had already accumulated to more than 5000 w h m^−2 during the growing period. Greenhouse shading closed when outside light levels rose above 600 watts m^−2 for more than 20 minutes.
No modifications to relative humidity were made. Tap water irrigation was provided twice daily as needed to maintain soil moisture. Every second or third day the plants were fertilized with irrigation water containing 100 ppm N—P—K from Peters® soluble 20-20-20 general purpose fertilizer (The Scotts Company, Marysville, Ohio, U.S.A.). The applied nutrient levels were considered less that ideal for optimal growth of maize plants.
Plant height was determined at 0, 7, 14, 21 and 28 days after treatment by measuring the length from the vertically extended longest leaf tip to the soil surface. The heights averaged across the 10 replicates are listed in Test Tables 1 and 2 for plants grown in Redi-Earth soil and Matapeake Soil/Sand, respectively.

[3] = test system: Rice plants (indica cultivar ‘MTU1010’); assay: Test J: vigor of rice crop outdoors, two foliar applications, West Godavri; settings: applied twice, 48 days after first application, Nilaparvata lugens level high
Method: as §1
Rice plants (indica cultivar ‘MTU1010’) were transplanted into flooded 5 m×3 m test plots of clay loam soil in the delta region of the West Godavri district, Andhra Pradesh, India, during the rainy season, and grown using local agronomic practices. After 52 days, aqueous mixtures of Compound 3 were applied to the foliage of the rice plants at 12.5, 25 or 50 g a.i./ha in a spray volume of 387 L/ha using a backpack sprayer. Plots of unsprayed rice plants were used as controls. Each treatment and control was replicated three times, and the plots were arranged in a randomized complete block design. At the time of application of Compound 3, the pest level of rice brown planthopper (Nilaparvata lugens) was high, i.e. much above the level considered economically significant. 20 days after the first treatment, the foliar applications of aqueous mixtures of Compound 3 were repeated at the same application rates in a spray volume of 467 L/ha.

[4] = Matapeake Soil/Sand, 0.2 mg a.i./pot
[5] = Matapeake Soil/Sand, 2.5 mg a.i./pot
[6] = Redi-Earth Soil, 0.2 mg a.i./pot
[7] = Redi-Earth Soil, 2.5 mg a.i./pot

## O=c1c(-c2cccc(C(F)(F)F)c2)c([O-])[n+](Cc2cncnc2)c2ccccn12 [Compound 3, 2-hydroxy-4-oxo-1-(5-pyrimidinylmethyl)-3-[3-(trifluoromethyl)phenyl]-4H-pyrido[1,2-a]pyrimidinium inner salt]
[1]
  crop vigor (visual rating, 0 to 200% scale, control = 100%): 100%
[2]; [4]
  Height (cm) at Days after Treatment 0 days: 22 cm
  Height (cm) at Days after Treatment 7 days: 49 cm
  Height (cm) at Days after Treatment 14 days: 66 cm
  Height (cm) at Days after Treatment 21 days: 76 cm
  Height (cm) at Days after Treatment 28 days: 87 cm
[2]; [5]
  Height (cm) at Days after Treatment 0 days: 22 cm
  Height (cm) at Days after Treatment 7 days: 46 cm
  Height (cm) at Days after Treatment 14 days: 65 cm
  Height (cm) at Days after Treatment 21 days: 78 cm
  Height (cm) at Days after Treatment 28 days: 88 cm
[2]; [6]
  Height (cm) at Days after Treatment 0 days: 22 cm
  Height (cm) at Days after Treatment 7 days: 53 cm
  Height (cm) at Days after Treatment 14 days: 85 cm
  Height (cm) at Days after Treatment 21 days: 111 cm
  Height (cm) at Days after Treatment 28 days: 131 cm
[2]; [7]
  Height (cm) at Days after Treatment 0 days: 21 cm
  Height (cm) at Days after Treatment 7 days: 53 cm
  Height (cm) at Days after Treatment 14 days: 85 cm
  Height (cm) at Days after Treatment 21 days: 111 cm
  Height (cm) at Days after Treatment 28 days: 137 cm
[2]; pest-free environment, nutrient constrained, both soils, 0.2 or 2.5 mg per pot
  growth enhancing effect on maize plants: little growth enhancing effect was noticeable
[3]; 12.5 g a.i./ha foliar
  crop vigor (visual rating, 0 to 200% scale, untreated = 100%): 148%
[3]; 25 g a.i./ha foliar
  crop vigor (visual rating, 0 to 200% scale, untreated = 100%): 148%
[3]; 50 g a.i./ha foliar
  crop vigor (visual rating, 0 to 200% scale, untreated = 100%): 148%

— patent US8895738B2, “Mesoionic pyrido [1, 2-A] pyrimidine pesticides” (E I du Pont de Nemours and Company, priority 2010, dated 2014)
